{"source": "patent US9539141B2", "about": "“System and method for ocular iontophoresis with buffering” (Eyegate Pharmaceuticals, Inc., priority 2008, dated 2017)", "experiment": "pH of aqueous solution at dosing concentration", "conditions": "aqueous solution at dosing concentration of 40 mg/mL", "data": [{"smiles": "C[C@@H]1C[C@H]2[C@@H]3CCC4=CC(=O)C=C[C@]4(C)[C@@]3(F)[C@@H](O)C[C@]2(C)[C@@]1(O)C(=O)COP(=O)(O)O", "note": "[dexamethasone phosphate]", "values": [{"measurement": "pH of aqueous solution", "result": 5.7}]}]}
